Read-outs that look alike come from different tables or passages of the source. Square brackets hold non-standard residues; d marks the D form. Peptide text beside a SMILES is read from it. hSer = N[C@@H](CCO)C(=O)O
Biological target: upper small intestine of rabbit (Oryctolagus cuniculus, UniProt G1T803)
Test: Intestinal contraction activity by Magnus method using upper small intestine of rabbit
Procedure: An intestinal contraction activity was measured by Magnus method using upper small intestine of rabbit ["J. Pharm. Pharmac.", Vol. 28, pages 650-651 (1976)], on each motilin-like polypeptides (Example 1, wherein R1 is Hse, Asp-Gly-Ile-Phe-Hse, or Arg-Ile-Phe-Hse) according to the invention, as test samples and a conventional pure [Leu^13 ]-motilin, as control sample. The activities of the test samples and control sample were compared, under assumption of that an contraction activity caused by 10^-6 M acetylcholine is 100%.

upper small intestine of rabbit, sequence (G1T803 1-400): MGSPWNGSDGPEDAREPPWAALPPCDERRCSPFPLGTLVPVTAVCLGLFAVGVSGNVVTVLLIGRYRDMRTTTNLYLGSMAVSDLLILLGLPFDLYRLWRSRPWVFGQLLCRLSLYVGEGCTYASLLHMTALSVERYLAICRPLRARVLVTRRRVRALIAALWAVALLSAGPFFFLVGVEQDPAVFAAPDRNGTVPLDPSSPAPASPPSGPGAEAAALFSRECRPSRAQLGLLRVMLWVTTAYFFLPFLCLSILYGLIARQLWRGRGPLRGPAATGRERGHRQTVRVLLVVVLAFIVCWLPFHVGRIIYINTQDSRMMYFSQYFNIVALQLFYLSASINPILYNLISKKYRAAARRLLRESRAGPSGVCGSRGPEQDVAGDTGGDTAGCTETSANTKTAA

Row | Structure (SMILES) | Activity in vitro (%) (Magnus method, from ED50, contraction activity of native motilin = 100%) | Activity in vitro (%)
1 | CC[C@H](C)[C@H](NC(=O)[C@@H]1CCCN1C(=O)[C@@H](NC(=O)[C@@H](N)Cc1ccccc1)C(C)C)C(=O)N[C@@H](Cc1ccccc1)C(=O)N[C@H](C(=O)N[C@@H](Cc1ccc(O)cc1)C(=O)NCC(=O)N[C@@H](CCC(=O)O)C(=O)N[C@@H](CC(C)C)C(=O)N[C@@H](CCC(N)=O)C(=O)N[C@@H](CCCNC(=N)N)C(=O)N[C@@H](CCSC)C(=O)N[C@@H](CCC(N)=O)C(=O)N[C@@H](CCC(=O)O)C(=O)N[C@@H](CCCCN)C(=O)N[C@@H](CCC(=O)O)C(=O)N[C@@H](CCCNC(=N)N)C(=O)N[C@@H](CC(N)=O)C(=O)N[C@@H](CCCCN)C(=O)NCC(=O)N[C@@H](CCC(N)=O)C(=O)O)[C@@H](C)O [motilin, reference compound] | 100 | –
2 | CC[C@H](C)[C@H](NC(=O)[C@H](CCC(=O)O)NC(=O)CNC(=O)[C@H](Cc1ccc(O)cc1)NC(=O)[C@@H](NC(=O)[C@H](Cc1ccccc1)NC(=O)[C@@H](NC(=O)[C@@H]1CCCN1C(=O)[C@@H](NC(=O)[C@@H](N)Cc1ccccc1)C(C)C)[C@@H](C)CC)[C@@H](C)O)C(=O)N[C@@H](CCC(N)=O)C(=O)N[C@@H](CCCNC(=N)N)C(=O)N[C@@H](CC(C)C)C(=O)N[C@@H](CCC(N)=O)C(=O)N[C@@H](CCC(=O)O)C(=O)N[C@@H](CCCCN)C(=O)N[C@@H](CCC(=O)O)C(=O)N[C@@H](CCCNC(=N)N)C(=O)N[C@@H](CC(N)=O)C(=O)N[C@@H](CCCCN)C(=O)NCC(=O)N[C@@H](CCC(N)=O)C(=O)N[C@@H](CCO)C(=O)O [(10) -Ile--Leu--Hse] (H-FVPIFTYGEIQRLQEKERNKGQ[hSer]-OH) | – | 110
3 | CC[C@H](C)[C@H](NC(=O)[C@@H]1CCCN1C(=O)[C@@H](NC(=O)[C@@H](N)Cc1ccccc1)C(C)C)C(=O)N[C@@H](Cc1ccccc1)C(=O)N[C@H](C(=O)N[C@@H](Cc1ccc(O)cc1)C(=O)NCC(=O)N[C@@H](CCC(=O)O)C(=O)N[C@@H](CC(C)C)C(=O)N[C@@H](CCC(=O)O)C(=O)N[C@@H](CCCNC(=N)N)C(=O)N[C@@H](CC(C)C)C(=O)N[C@@H](CCC(N)=O)C(=O)N[C@@H](CCC(=O)O)C(=O)N[C@@H](CCCCN)C(=O)N[C@@H](CCC(=O)O)C(=O)N[C@@H](CCCNC(=N)N)C(=O)N[C@@H](CC(N)=O)C(=O)N[C@@H](CCCCN)C(=O)NCC(=O)N[C@@H](CCC(N)=O)C(=O)N[C@@H](CCO)C(=O)O)[C@@H](C)O [(11) -Glu--Leu--Hse] (H-FVPIFTYGELERLQEKERNKGQ[hSer]-OH) | – | 110

Reference: patent US5432261A, “Motlin-like polypeptide and use thereof” (priority 1989, dated 1995)
